Assay results from patent publication US8518890B2, “Remedies for sex hormone dependent disease” (Takeda Pharmaceutical Company Limited, priority 2002, dated 2013).

How the values were obtained:
Assay in all cases: Effect on cell growth in the presence of androgen (cell count)
Format in all cases: cell-based
LNCaP-FGC cells = conditions: 0.01 to 10 ng/mL testosterone, cells counted 3 days after addition, FIG. 1
Protocol: (§1) (Method) LNCaP-hr (cultured for 60 weeks in culture broth free of androgen) and LNCaP-FGC cells were plated on a 24 well plate at 40000 cells/mL/well, 0.01 to 10 ng/mL of testosterone was added the next day, and the cells were counted 3 days after the addition. In addition, MDA PCa 2b-hr (cultured for 61 weeks in culture broth free of androgen) and MDA PCa 2b cells were plated on a 24 well plate at 40000 cells/mL/well, 0.1 to 100 ng/mL of testosterone was added the next day, and the cells were counted 4 days after the addition. (Results) The growth of LNCaP-FGC and MDA PCa 2b was promoted by testosterone [FIGS. 1 and 2]. In contrast, the growth of LNCaP-hr and MDA PCa 2b-hr cells were suppressed by testosterone [FIGS. 1 and 2].

MDA PCa 2b cells = conditions: 0.1 to 100 ng/mL testosterone, cells counted 4 days after addition, FIG. 2
Protocol: as §1

[1] = system: LNCaP-hr cells (highly androgen sensitive cell line); conditions: LNCaP-hr (cultured 60 weeks in androgen-free broth), 0.01 to 10 ng/mL testosterone, cells counted 3 days after addition, FIG. 1
[2] = system: MDA PCa 2b-hr cells (highly androgen sensitive cell line); conditions: MDA PCa 2b-hr (cultured 61 weeks in androgen-free broth), 0.1 to 100 ng/mL testosterone, cells counted 4 days after addition, FIG. 2

SMILES: C[C@]12CC[C@H]3[C@@H](CCC4=CC(=O)CC[C@@]43C)[C@@H]1CC[C@@H]2O [testosterone]
- cell growth (LNCaP-FGC cells): promoted
- cell growth (MDA PCa 2b cells): promoted
- cell growth [1]: suppressed
- cell growth [2]: suppressed
